Reference: US11739098B2 (BRISTOL-MYERS SQUIBB COMPANY, priority 2017, dated 2023)

Legend:
Format in all cases: cell-based
human TLR8 = biological target: T1, human TLR8 (Homo sapiens, UniProt Q9NR97); assay: TLR8 inhibition reporter assay (HEK-Blue cells, SEAP reporter, R848 stimulation); conditions: HEK-Blue cells overexpressing human TLR8, SEAP reporter, R848 15.9 μM
T1 construct: host or cells: HEK-Blue cells (HEK293-derived reporter line)
T1 sequence (Q9NR97 27-1041): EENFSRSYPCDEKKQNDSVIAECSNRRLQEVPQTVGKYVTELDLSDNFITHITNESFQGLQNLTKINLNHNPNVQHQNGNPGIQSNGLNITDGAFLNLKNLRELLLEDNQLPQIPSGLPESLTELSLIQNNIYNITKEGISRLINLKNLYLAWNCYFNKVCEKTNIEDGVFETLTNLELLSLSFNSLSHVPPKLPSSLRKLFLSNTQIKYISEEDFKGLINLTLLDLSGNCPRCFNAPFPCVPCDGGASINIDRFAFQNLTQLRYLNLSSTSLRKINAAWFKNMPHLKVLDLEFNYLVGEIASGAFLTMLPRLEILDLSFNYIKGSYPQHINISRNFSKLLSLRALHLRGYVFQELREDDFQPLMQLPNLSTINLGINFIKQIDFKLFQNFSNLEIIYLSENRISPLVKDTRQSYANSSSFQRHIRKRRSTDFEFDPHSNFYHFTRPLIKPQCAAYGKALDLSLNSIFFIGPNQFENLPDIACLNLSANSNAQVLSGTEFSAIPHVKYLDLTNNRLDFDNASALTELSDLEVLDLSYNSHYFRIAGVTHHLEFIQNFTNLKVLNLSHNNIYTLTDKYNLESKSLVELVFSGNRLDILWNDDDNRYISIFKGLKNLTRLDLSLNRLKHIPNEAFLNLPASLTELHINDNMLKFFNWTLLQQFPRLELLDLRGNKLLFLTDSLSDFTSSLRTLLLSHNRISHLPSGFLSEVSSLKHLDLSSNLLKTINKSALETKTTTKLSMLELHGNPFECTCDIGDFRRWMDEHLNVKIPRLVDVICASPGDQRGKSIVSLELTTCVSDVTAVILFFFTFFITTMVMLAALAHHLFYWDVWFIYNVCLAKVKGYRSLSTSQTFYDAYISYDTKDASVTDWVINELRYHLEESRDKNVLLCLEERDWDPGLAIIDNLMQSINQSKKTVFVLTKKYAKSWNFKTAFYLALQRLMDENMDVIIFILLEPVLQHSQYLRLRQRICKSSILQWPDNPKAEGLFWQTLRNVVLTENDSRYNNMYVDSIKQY
Method in brief: (§1)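 HEK-Blue cells overexpressing the receptor, with NF-κB/AP-1-driven SEAP, were pre-treated 30 min at room temperature with compound (0.05 nM–50 μM), then stimulated with gardiquimod 7.5 μM (TLR7), R848 15.9 μM (TLR8) or ODN2006 5 nM (TLR9). SEAP was read after 22 h at 37 °C as percent inhibition.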

human TLR9 = biological target: T2, human TLR9 (Homo sapiens, UniProt Q9NR96); assay: TLR9 inhibition reporter assay (HEK-Blue cells, SEAP reporter, ODN2006 stimulation); conditions: HEK-Blue cells overexpressing human TLR9, SEAP reporter, ODN2006 5 nM
T2 construct: host or cells: HEK-Blue cells (HEK293-derived reporter line)
T2 sequence (Q9NR96 26-1032): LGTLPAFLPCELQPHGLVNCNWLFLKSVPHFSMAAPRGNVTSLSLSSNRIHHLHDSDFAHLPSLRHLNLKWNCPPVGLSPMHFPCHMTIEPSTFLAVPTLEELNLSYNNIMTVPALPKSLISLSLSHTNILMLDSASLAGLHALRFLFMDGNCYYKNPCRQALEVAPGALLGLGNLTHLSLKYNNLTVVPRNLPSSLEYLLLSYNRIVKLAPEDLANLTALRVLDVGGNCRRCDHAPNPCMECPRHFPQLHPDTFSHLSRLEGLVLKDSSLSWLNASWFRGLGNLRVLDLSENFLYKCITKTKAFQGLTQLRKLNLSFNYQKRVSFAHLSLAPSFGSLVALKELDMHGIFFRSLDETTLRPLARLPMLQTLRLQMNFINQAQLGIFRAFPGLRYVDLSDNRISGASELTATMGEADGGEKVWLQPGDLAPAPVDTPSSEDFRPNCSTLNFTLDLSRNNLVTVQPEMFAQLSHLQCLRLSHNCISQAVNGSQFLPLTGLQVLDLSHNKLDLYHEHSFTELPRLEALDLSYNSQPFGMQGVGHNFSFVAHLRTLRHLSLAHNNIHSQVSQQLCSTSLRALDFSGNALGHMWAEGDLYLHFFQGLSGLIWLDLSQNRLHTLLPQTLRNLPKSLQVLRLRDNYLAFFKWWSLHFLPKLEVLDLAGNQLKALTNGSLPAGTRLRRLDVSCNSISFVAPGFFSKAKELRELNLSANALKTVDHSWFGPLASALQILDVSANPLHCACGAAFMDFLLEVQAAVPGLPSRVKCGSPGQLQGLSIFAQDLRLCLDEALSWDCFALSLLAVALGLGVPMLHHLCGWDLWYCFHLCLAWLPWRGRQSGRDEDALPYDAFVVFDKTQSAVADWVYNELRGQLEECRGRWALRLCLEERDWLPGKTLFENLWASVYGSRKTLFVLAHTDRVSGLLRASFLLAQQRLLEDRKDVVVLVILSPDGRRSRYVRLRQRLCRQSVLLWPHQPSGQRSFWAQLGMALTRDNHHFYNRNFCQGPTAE
Method in brief: as §1

human TLR7 = biological target: T3, human TLR7 (Homo sapiens, UniProt Q9NYK1); assay: TLR7 inhibition reporter assay (HEK-Blue cells, SEAP reporter, gardiquimod stimulation); conditions: HEK-Blue cells overexpressing human TLR7, SEAP reporter, gardiquimod 7.5 μM
T3 construct: host or cells: HEK-Blue cells (HEK293-derived reporter line)
T3 sequence (Q9NYK1 27-1049): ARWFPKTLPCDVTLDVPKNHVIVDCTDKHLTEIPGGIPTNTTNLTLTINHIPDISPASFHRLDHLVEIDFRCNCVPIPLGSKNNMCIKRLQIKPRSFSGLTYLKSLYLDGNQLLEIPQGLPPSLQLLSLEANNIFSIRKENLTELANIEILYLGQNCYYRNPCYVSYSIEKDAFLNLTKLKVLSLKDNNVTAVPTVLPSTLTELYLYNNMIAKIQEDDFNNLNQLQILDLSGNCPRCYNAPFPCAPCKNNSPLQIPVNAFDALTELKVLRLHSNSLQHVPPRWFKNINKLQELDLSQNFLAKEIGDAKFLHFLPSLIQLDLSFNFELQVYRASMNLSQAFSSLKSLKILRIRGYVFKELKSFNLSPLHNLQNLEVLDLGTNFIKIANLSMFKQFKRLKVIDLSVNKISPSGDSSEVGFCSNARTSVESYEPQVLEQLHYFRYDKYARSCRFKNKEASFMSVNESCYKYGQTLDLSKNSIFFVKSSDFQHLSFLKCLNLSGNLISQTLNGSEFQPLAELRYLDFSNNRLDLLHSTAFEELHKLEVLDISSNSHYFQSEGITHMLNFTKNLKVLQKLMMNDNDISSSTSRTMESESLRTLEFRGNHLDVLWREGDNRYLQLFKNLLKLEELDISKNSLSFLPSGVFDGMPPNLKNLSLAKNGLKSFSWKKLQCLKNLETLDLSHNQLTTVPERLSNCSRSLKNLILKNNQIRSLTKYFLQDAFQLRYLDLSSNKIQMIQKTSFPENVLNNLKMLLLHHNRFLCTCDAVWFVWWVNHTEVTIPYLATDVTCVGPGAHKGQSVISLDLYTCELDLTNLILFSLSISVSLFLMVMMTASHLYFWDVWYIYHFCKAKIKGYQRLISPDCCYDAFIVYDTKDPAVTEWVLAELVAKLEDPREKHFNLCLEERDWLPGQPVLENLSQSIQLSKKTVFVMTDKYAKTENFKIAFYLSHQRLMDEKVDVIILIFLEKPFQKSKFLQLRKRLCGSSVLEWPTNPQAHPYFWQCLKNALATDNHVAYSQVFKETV
Method in brief: as §1

SMILES | IC50 (human TLR8) | IC50 (human TLR9) | IC50 (human TLR7)
CCc1c(-c2cnc3cncc(OC)n23)[nH]c2ccc(C3CCNCC3)cc12 [Example 25, 3-(3-ethyl-5-(piperidin-4-yl)-1H-indol-2-yl)-5-methoxyimidazo[1,2-a]pyrazine] | 1000 to 50000 nM | 100 to 1000 nM | 1000 to 50000 nM
CC(C)c1c(-c2c[nH]c3ccncc23)[nH]c2ccc(C3CCNCC3)cc12 [Example 14, 3-(3-isopropyl-5-(piperidin-4-yl)-1H-indol-2-yl)-1H-pyrrolo[3,2-c]pyridine] | > 3130 nM | 100 to 1000 nM | > 3130 nM
CC(C)c1c(-c2cn3ccnc3cc2Cl)[nH]c2ccc(C3CCNCC3)cc12 [Example 128, 7-chloro-6-(3-isopropyl-5-(piperidin-4-yl)-1H-indol-2-yl)imidazo[1,2-a]pyridine] | < 100 nM | 1000 to 50000 nM | < 100 nM
Cc1nnn2ccc(-c3[nH]c4ccc(C5CCN(Cc6ccn(C)n6)CC5)cc4c3C(C)C)cc12 [Example 888, 5-(3-isopropyl-5-(1-((1-methyl-1H-pyrazol-3-yl)methyl)piperidin-4-yl)-1H-indol-2-yl)-3-methyl-[1,2,3]triazolo[1,5-a]pyridine] | < 100 nM | 1000 to 50000 nM | < 100 nM
CC(C)c1c(-c2cnc3ccnn3c2)[nH]c2ccc(C3CCN(C(C)C)CC3)cc12 [Example 944, 6-(3-isopropyl-5-(1-isopropylpiperidin-4-yl)-1H-indol-2-yl)pyrazolo[1,5-a]pyrimidine] | > 3130 nM | 1000 to 50000 nM | 1000 to 50000 nM
CC(C)c1c(-c2ccnc3[nH]ncc23)[nH]c2ccc(C3CCN(C(=O)CNCCCN(C)C)CC3)cc12 [Example 575, 2-((3-(dimethylamino)propyl)amino)-1-(4-(3-isopropyl-2-(1H-pyrazolo[3,4-b]pyridin-4-yl)-1H-indol-5-yl)piperidin-1-yl)ethan-1-one] | < 100 nM | 100 to 1000 nM | < 100 nM
Cc1nc2c(-c3[nH]c4ccc(C5CCN(CC(C)(C)O)CC5)cc4c3C(C)C)ccc(C)n2n1 [Example 768, 1-(4-(2-(2,5-dimethyl-[1,2,4]triazolo[1,5-a]pyridin-8-yl)-3-isopropyl-1H-indol-5-yl)piperidin-1-yl)-2-methylpropan-2-ol] | 1000 to 50000 nM | 1000 to 50000 nM | > 3130 nM
Cc1nnn2ccc(-c3[nH]c4ccc(C5CCN(C(=O)CN(C)C)CC5)cc4c3C(C)C)cc12 [Example 487, 2-(dimethylamino)-1-(4-(3-isopropyl-2-(3-methyl-[1,2,3]triazolo[1,5-a]pyridin-5-yl)-1H-indol-5-yl)piperidin-1-yl)ethan-1-one] | < 100 nM | 1000 to 50000 nM | < 100 nM

Second part, the molecule after the results:

IC50 (human TLR8) | IC50 (human TLR9) | IC50 (human TLR7) | SMILES
< 100 nM | 100 to 1000 nM | < 100 nM | Cc1nnn2ccc(-c3[nH]c4ccc(C5CCNCC5)cc4c3C(C)C)cc12 [Example 77, 5-(3-isopropyl-5-(piperidin-4-yl)-1H-indol-2-yl)-3-methyl-[1,2,3]triazolo[1,5-a]pyridine]
< 100 nM | 1000 to 50000 nM | < 100 nM | Cc1cc(-c2[nH]c3ccc(C4CCN(CC(=O)N(C)C)CC4)cc3c2C(C)C)cc2ncnn12 [Example 324, 2-(4-(3-isopropyl-2-(5-methyl-[1,2,4]triazolo[1,5-a]pyridin-7-yl)-1H-indol-5-yl)piperidin-1-yl)-N,N-dimethylacetamide]
< 100 nM | < 100 nM | < 100 nM | CC(C)c1c(-c2ccnc3[nH]ncc23)[nH]c2cc(F)c(C3CCN(CC4CCN(C(C)C)CC4)CC3)cc12 [Example 966, 4-(6-fluoro-3-isopropyl-5-(1-((1-isopropylpiperidin-4-yl)methyl)piperidin-4-yl)-1H-indol-2-yl)-1H-pyrazolo[3,4-b]pyridine]
< 100 nM | 100 to 1000 nM | 100 to 1000 nM | CN(C)CC(=O)N1CCC(c2ccc3[nH]c(-c4ccnc5[nH]ncc45)c(CC(F)F)c3c2)CC1 [Example 517, 1-(4-(3-(2,2-difluoroethyl)-2-(1H-pyrazolo[3,4-b]pyridin-4-yl)-1H-indol-5-yl)piperidin-1-yl)-2-(dimethylamino)ethan-1-one]
